Data: US12492163B2, “9H-fluorene derivatives or their pharmaceutically acceptable salts” (priority 2020, dated 2025)

Legend:
[1] = target: human recombinant beta-secretase (hBACE1) (Homo sapiens (Human), UniProt P56817); assay: FRET assay, inhibition of human recombinant beta-secretase; format: biochemical; conditions: 50 μM inhibitor concentration; read-out: hBACE-1 % inh
Procedure, shortened: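 hBACE1 (added as 1 U/ml solution) cleaves a rhodamine/quencher peptide based on the Swedish APP mutation in 50 mM sodium acetate pH 4.5, 60 min at 25 °C, stopped with 2.5 M sodium acetate; fluorescence at 576 nm. % inhibition from 0–60 min signal change versus enzyme-only blanks; screened at 50 μM in triplicate; IC50 by non-linear regression.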

[2] = target: Recombinant human Aβ1-42 peptide (Homo sapiens (Human), UniProt P05067); assay: Thioflavin T test, antiaggregation activity against beta-amyloid; format: biochemical; conditions: 10 μM test compound, 1.5 μM Aβ1-42; read-out: inh. Aβ aggr. % inh
Chain of Recombinant human Aβ1-42 peptide (P05067 672-713): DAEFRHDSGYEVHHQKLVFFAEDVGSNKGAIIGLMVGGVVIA
Procedure, shortened: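 Aβ1-42 (1.5 μM final, HFIP-pretreated) aggregated in HEPES pH 7.4 with 150 mM NaCl, thioflavin T 10 μM, 3% DMSO, compound 10 μM. Fluorescence (ex 440/em 490 nm) read every 300 s with mixing; plateau values minus t=0 give % inhibition; IC50 by non-linear regression against concentration.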

Albino Swiss CD-1 mice = assay: Spontaneous motor activity test; format: in vivo
Procedure: The research was conducted at the Department of Pharmacodynamics, Faculty of Pharmacy, Jagiellonian University in Krakow. All procedures were approved by the 1st and 2nd Local Ethics Committee for Animal Experiments in Krakow (consent no. 53/2017 and 250/2019) and were performed in accordance with the applicable European Union regulation (86/609/EEC). Males of two different strains of domestic mice (Mus musculus) were used in the study: Albino Swiss CD-1 (body weight approx. 20-24 g, age approx. 6 weeks) and C57BL/6J mice (body weight approx. 18-22 g, age approx. 6 weeks). The CD-1 strain was used for the passive avoidance, spontaneous mobility and rotating rod tests, while the C57BL/6J mice were used for the Morris water maze and the Barnes' maze. The animals were kept in standard, appropriately sized cages, divided into groups with a maximum of 10 animals. […]
In this test, the effect of compound JT-3 on the spontaneous motor activity of mice was investigated. […] The apparatus recorded the number of horizontal and vertical movements during the 60-minute test. The mice were put into the actometer, the measurement lasted for 1 hour, during which the camera counted the number of times the light beams were crossed, i.e. motor activity. […]

Chain of human recombinant beta-secretase (hBACE1) (P56817 46-501): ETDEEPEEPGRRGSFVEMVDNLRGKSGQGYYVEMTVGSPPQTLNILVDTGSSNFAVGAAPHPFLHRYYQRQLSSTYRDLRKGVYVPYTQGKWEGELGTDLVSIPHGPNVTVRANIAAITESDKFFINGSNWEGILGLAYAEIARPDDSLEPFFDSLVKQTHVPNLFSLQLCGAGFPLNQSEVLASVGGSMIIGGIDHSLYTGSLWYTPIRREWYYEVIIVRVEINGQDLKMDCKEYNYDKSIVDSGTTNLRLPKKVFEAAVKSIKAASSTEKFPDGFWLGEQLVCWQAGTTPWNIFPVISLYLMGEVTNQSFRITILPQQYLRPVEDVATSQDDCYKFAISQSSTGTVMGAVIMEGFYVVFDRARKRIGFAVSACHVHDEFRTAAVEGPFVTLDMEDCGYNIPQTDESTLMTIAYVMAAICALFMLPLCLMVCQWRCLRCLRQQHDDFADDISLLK

For O[C@H](CNCC1CC1)[C@H](Cc1ccccc1)NC1c2ccccc2-c2ccccc21 [JT-3, (2R,3S)-3-((9H-fluoren-9-yl)amino)-1-((cyclopropylmethyl)amino)-4-phenylbutan-2-ol], the inhibition at 50 µM [1] was 61.3%, the inhibition at 10 µM [2] was 79% and the “effect on spontaneous motor activity (number of movements in 60 min)” value (Albino Swiss CD-1 mice; 10 mg/kg i.p.) was “Neither of these doses affected the motility of the animals”. The “effect on spontaneous motor activity (number of movements in 60 min)” value (Albino Swiss CD-1 mice; 30 mg/kg i.p.) was “Neither of these doses affected the motility of the animals”.
